Laboratory results reported in ChEMBL document CHEMBL5725860 (2018).

biological target: Neurotensin receptor type 1 (Homo sapiens, UniProt P30989); assay: NTR1 Ca2+ Flux Dose Response: NTSR1 (NTR1) CHO cells are plated in 20 uL of assay media containing Ham's F12 supplemented with 10% fetal bovine serum and 0.4 mg/mL G418 at a concentration of 1.0×10^6 cells per mL into black, 384-well assay plates with clear bottoms using a Multidrop liquid handler. Assay plates are incubated at 37° C. in 5% CO2. The next day, the assay plates are aspirated to remove growth media and washed once with 20 uL of DPBS. The DPBS is then aspirated from the assay plate and replaced with 25 uL of Fluo-4 NW calcium dye prepared according to the manufacturer's recommendations then the plates are incubated for 1 hour at 37° C. Following the incubation in the presence of dye, the assay is run on a Molecular Devices FlexStation-III using 494 excitation and 516 emission wavelengths set to read for 90 seconds with the addition at 18 seconds of 5 uL of 6× final concentration of test compounds and peptide control diluted in assay media containing 0.1% BSA and no more than 9% DMSO to yield a maximum final DMSO concentration of 1.5%. […] EC50 values were calculated for those compounds tested in 8-point dose dependent response.
Sequence (P30989 whole entry): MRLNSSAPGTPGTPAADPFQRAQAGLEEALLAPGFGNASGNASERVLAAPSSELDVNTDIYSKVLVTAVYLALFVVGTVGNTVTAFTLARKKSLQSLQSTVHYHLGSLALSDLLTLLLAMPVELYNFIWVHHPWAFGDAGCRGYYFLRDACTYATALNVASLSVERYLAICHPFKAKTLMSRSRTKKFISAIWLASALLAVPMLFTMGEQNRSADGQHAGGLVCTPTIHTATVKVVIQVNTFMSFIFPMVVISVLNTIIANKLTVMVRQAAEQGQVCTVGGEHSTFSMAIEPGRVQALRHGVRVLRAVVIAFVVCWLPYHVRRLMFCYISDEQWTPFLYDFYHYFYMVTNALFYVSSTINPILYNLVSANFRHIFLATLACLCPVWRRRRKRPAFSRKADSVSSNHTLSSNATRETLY

| SMILES | EC50 [µM] |
| --- | --- |
| COc1ccccc1C1CCN(c2nc(C3CC3)nc3cc(F)c(N(C)CCO)cc23)CC1 | < 0.5 |
| COc1ccccc1C1CCN(c2nc(C3CC3)nc3c(N(C)CCO)cccc23)CC1 | > 10 |
| COc1ccccc1C1CCN(c2nc(C3CC3)nc(C)c2CC(=O)N(C)CCO)CC1 | > 10 |
| COc1cccc2c1CCN(c1nc(C3CC3)nc3ccc(N(C)CCO)cc13)C2 | > 10 |
